Results: patent US20250066344A1 (BRISTOL-MYERS SQUIBB COMPANY, priority 2021, published 2025)
pEC50: −log10 of the molar value.

These compounds were tested against T1, human RXFP1 (Homo sapiens, UniProt Q9HBX9) (assay: RXFP1 cyclic adenosine monophosphate (cAMP) assay, hRXFP1 HEK293). Settings: HEK293 cells stably expressing human RXFP1; 30 min at room temperature; HTRF cAMP.
T1 construct: expressed in transfected cells
T1 sequence (Q9HBX9 1-757): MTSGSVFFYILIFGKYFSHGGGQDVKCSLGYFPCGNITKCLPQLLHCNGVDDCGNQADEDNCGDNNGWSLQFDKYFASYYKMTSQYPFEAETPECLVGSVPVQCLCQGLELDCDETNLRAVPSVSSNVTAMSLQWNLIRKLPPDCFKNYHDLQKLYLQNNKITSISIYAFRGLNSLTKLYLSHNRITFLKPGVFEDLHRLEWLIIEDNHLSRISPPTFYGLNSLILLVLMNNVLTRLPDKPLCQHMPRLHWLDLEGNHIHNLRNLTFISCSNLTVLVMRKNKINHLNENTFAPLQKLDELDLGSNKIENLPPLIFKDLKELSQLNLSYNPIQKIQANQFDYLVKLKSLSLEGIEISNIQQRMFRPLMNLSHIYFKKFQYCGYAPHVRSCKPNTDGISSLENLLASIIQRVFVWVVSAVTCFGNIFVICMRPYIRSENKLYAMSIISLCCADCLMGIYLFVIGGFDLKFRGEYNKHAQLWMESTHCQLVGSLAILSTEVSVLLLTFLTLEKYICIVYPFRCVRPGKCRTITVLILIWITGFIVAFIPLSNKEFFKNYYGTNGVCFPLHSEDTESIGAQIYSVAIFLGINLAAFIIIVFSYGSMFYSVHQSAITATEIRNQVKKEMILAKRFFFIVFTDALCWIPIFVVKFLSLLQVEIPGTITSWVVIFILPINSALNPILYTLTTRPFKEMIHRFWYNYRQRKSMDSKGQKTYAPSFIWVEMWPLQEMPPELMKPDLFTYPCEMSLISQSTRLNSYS
Format: cell-based
Method: RXFP1 Cyclic Adenosine Monophosphate (cAMP) Assays. Human embryonic kidney cells 293 (HEK293) cells and HEK293 cells stably expressing human RXFP1, were cultured in MEM medium supplemented with 10% qualified FBS, and 300 μg/ml hygromycin (Life Technologies). Cells were dissociated and suspended in assay buffer. The assay buffer was HBSS buffer (with calcium and magnesium) containing 20 mM HEPES, 0.05% BSA, and 0.5 mM IBMX. Cells (3000 cells per well, except 1500 cell per well for HEK293 cells stably expressing human RXFP1) were added to 384-well Proxiplates (Perkin-Elmer). Cells were immediately treated with test compounds in DMSO (2% final) at final concentrations in the range of 0.010 nM to 50 μM. Cells were incubated for 30 min at room temperature. The level of intracellular cAMP was determined using the HTRF HiRange cAMP assay reagent kit (Cisbio) according to manufacturer's instructions. Solutions of cryptate conjugated anti-cAMP and d2 fluorophore-labelled cAMP were made in a supplied lysis buffer separately. Upon completion of the reaction, the cells were lysed with equal volume of the d2-cAMP solution and anti-cAMP solution. After a 1 h room temperature incubation, time-resolved fluorescence intensity was measured using the Envision (Perkin-Elmer) at 400 nm excitation and dual emission at 590 nm and 665 nm. A calibration curve was constructed with an external cAMP standard at concentrations ranging from 2.7 μM to 0.1 μM by plotting the fluorescent intensity ratio from 665 nm emission to the intensity from the 590 nm emission against cAMP concentrations. The potency and activity of a compound to […] cAMP production was then determined by fitting to a 4-parametric logistic equation from a plot of cAMP level versus compound concentrations.
The examples disclosed below were tested in the human RXFP1 (hRXFP) HEK293 cAMP assay described above and found to have agonist activity. Tables 1-3, lists EC50 values in the hRXFP1 HEK293 cAMP assay measured for the examples.
Table A lists EC50 values in the hRXFP1 HEK293 cAMP assay measured for the examples.
A pEC50 of 8.22 was found for `COc1ccc(C2=NOC3CN(CC(C)(C)O)CC23)cc1C(=O)Nc1cc2c(cc1C(=O)Nc1ccc(F)c(C(F)(F)F)c1)OC(F)(F)O2` (stereo not drawn) [Example 45, 2,2-difluoro-N-(4-fluoro-3-(trifluoromethyl)phenyl)-6-(5-(5-(2-hydroxy-2-methylpropyl)-3a,5,6,6a-tetrahydro-4H-pyrrolo[3,4-d]isoxazol-3-yl)-2-methoxybenzamido)benzo[d][1,3]dioxole-5-carboxamide] in this work.
A pEC50 of 8.22 was found for `COc1ccc(C(=O)NCC2(S(C)(=O)=O)CC2)cc1C(=O)Nc1cc2c(cc1C(=O)Nc1ccc(F)c(C(F)(F)F)c1)OC(F)(F)O2` [Example 35, N3-(2,2-difluoro-6-((4-fluoro-3-(trifluoromethyl)phenyl)carbamoyl)benzo[d][1,3]dioxol-5-yl)-4-methoxy-N1-((1-(methylsulfonyl)cyclopropyl)methyl)isophthalamide] in this work.
A pEC50 of 6.94 was found for `COc1ccc(-c2cc(C(=O)O)ccc2F)cc1C(=O)Nc1cc2c(C)noc2cc1C(=O)Nc1ccc(F)c(C(F)(F)F)c1` [Example 31, 6-fluoro-3′-((6-((4-fluoro-3-(trifluoromethyl)phenyl)carbamoyl)-3-methylbenzo[d]isoxazol-5-yl)carbamoyl)-4′-methoxy-[1,1′-biphenyl]-3-carboxylic acid] in this work.
A pEC50 of 7.07 was found for `COc1ccc(-c2cc(C(=O)NS(C)(=O)=O)ccc2F)cc1C(=O)Nc1cc2c(cc1C(=O)Nc1ccc(F)c(C(F)(F)F)c1)OC(F)(F)O2` [Example 47, N3-(2,2-difluoro-6-((4-fluoro-3-(trifluoromethyl)phenyl)carbamoyl)benzo[d][1,3]dioxol-5-yl)-6′-fluoro-4-methoxy-N3′-(methylsulfonyl)-[1,1′-biphenyl]-3,3′-dicarboxamide] in this work.
A pEC50 of 6.59 was found for `COc1ccc(C2=NOC(C(C)(C)O)C2)cc1C(=O)Nc1cc2c(cc1C(=O)Nc1ccc(F)c(C(F)(F)F)c1)OC(F)(F)O2` (single isomer, unassigned) [Example 76, 2,2-difluoro-N-(4-fluoro-3-(trifluoromethyl)phenyl)-6-(5-(5-(2-hydroxypropan-2-yl)-4,5-dihydroisoxazol-3-yl)-2-methoxybenzamido) benzo[d][1,3]dioxole-5-carboxamide] in this work.
A pEC50 of 8.41 was found for `COc1ccc(C2=NOC3CC(CO)CC23)cc1C(=O)Nc1cc2c(cc1C(=O)Nc1ccc(F)c(C(F)(F)F)c1)OC(F)(F)O2` (stereo not drawn) [Example 99, 2,2-difluoro-N-(4-fluoro-3-(trifluoromethyl)phenyl)-6-(5-(5-(hydroxymethyl)-3a,5,6,6a-tetrahydro-4H-cyclopenta[d]isoxazol-3-yl)-2-methoxybenzamido) benzo[d][1,3]dioxole-5-carboxamide] in this work.
A pEC50 of 7.74 was found for `COc1ccc(-c2cc([C@H](OC(=O)NC3CCC3)C(F)(F)F)ccc2F)cc1C(=O)Nc1cc2c(C)noc2cc1C(=O)Nc1ccc(F)c(C(F)(F)F)c1` [Example 32, (S)-2,2,2-trifluoro-1-(6-fluoro-3′-((6-((4-fluoro-3-(trifluoromethyl)phenyl)carbamoyl)-3-methylbenzo[d]isoxazol-5-yl)carbamoy])-4-methoxy-[1,1′-biphenyl]-3-yl)ethyl cyclobutylcarbamate] in this work.
A pEC50 of 6.88 was found for `COc1ccc(-c2cncc(S(=O)(=O)NC(C)(C)C)c2)cc1C(=O)Nc1cc2c(cc1C(=O)Nc1ccc(F)c(C(F)(F)F)c1)OC(F)(F)O2` [Example 70, 6-(5-(5-(N-(tert-butyl)sulfamoyl)pyridin-3-yl)-2-methoxybenzamido)-2,2-difluoro-N-(4-fluoro-3-(trifluoromethyl)phenyl) benzo[d][1,3]dioxole-5-carboxamide] in this work.
A pEC50 of 7.39 was found for `COc1ccc(C#CCO)cc1C(=O)Nc1cc2c(cc1C(=O)Nc1ccc(F)c(C(F)(F)F)c1)OC(F)(F)O2` [Example 59, 2,2-difluoro-N-(4-fluoro-3-(trifluoromethyl)phenyl)-6-(5-(3-hydroxyprop-1-yn-1-yl)-2-methoxybenzamido) benzo[d][1,3]dioxole-5-carboxamide] in this work.
A pEC50 of 5.57 was found for `COc1ccc(C2=NOC3COCC23)cc1C(=O)Nc1cc2nc(C)sc2cc1C(=O)NC1CCCC1` (stereo not drawn) [Example 29, N-cyclopentyl-5-(2-methoxy-5-(3a,4,6,6a-tetrahydrofuro [3,4-d]isox-azol-3-yl)-benzamido)-2-methylbenzo [d]thiazole-6-carboxamide] in this work.
A pEC50 of 6.80 was found for `COc1ccc(C2=NOC(C(C)(C)O)C2)cc1C(=O)Nc1cc2nc(C)sc2cc1C(=O)Nc1ccc(F)c(C(F)(F)F)c1` (stereo not drawn) [Example 11, N-(4-fluoro-3-(trifluorometh-yl)phenyl)-5-(5-(5-(2-hydroxypro-pan-2-yl)-4,5-dihydroisox-azol-3-yl)-2-methoxybenz-amido)-2-methylbenzo [d]thiazole-6-carboxamide] in this work.
A pEC50 of 7.05 was found for `COc1ccc(C(=O)N2CC(C)(O)C2)cc1C(=O)Nc1cc2c(cc1C(=O)Nc1ccc(F)c(C(F)(F)F)c1)OC(F)(F)O2` [Example 39, 2,2-difluoro-N-(4-fluoro-3-(trifluoromethyl)phenyl)-6-(5-(3-hydroxy-3-methylazetidine-1-carbonyl)-2-methoxybenzamido) benzo[d][1,3]dioxole-5-carboxamide] in this work.
A pEC50 of 5.87 was found for `COc1ccc(C#CC(C)(C)O)cc1C(=O)Nc1cc2c(C)noc2cc1C(=O)Nc1ccc(F)c(C(F)(F)F)c1` [Example 34, N-(4-fluoro-3-(trifluoromethyl)phenyl)-5-(5-(3-hydroxy-3-methylbut-1-yn-1-yl)-2-methoxybenzamido)-methylbenzo[d]isoxazole-6-carboxamide] in this work.
A pEC50 of 8.07 was found for `COc1ccc(C2=NOC3COCC23)cc1C(=O)Nc1cc2nc(C)sc2cc1C(=O)Nc1ccc(F)c(C(F)(F)F)c1` (stereo not drawn) [Example 3, N-(4-fluoro-3-(trifluorometh-yl)phenyl)-5-(2-methoxy-5-(3a,4,6,6a-tetrahydrofuro [3,4-d]isox-azol-3-yl)-benzamido)-2-methylbenzo [d]thiazole-6-carboxamide] in this work.
A pEC50 of 6.27 was found for `COc1ccc(N2CC(CO)CC2=O)cc1C(=O)Nc1cc2nc(C)sc2cc1C(=O)Nc1ccc(F)c(C(F)(F)F)c1` (stereo not drawn) [Example 13, N-(4-fluoro-3-(trifluorometh-yl)phenyl)-5-(5-(4-(hy-droxymethyl)-2-oxopyrroli-din-1-yl)-2-methoxybenz-amido)-2-methylbenzo [d]thiazole-6-carboxamide] in this work.
A pEC50 of 6.51 was found for `COc1ccc(C2=NOC3(CCNCC3)C2)cc1C(=O)Nc1cc2c(cc1C(=O)Nc1ccc(F)c(C(F)(F)F)c1)OC(F)(F)O2` [Example 67, 2,2-difluoro-N-(4-fluoro-3-(trifluoromethyl)phenyl)-6-(2-methoxy-5-(1-oxa-2,8-diazaspiro[4.5]dec-2-en-3-yl)benzamido)benzo[d] [1,3]dioxole-5-carboxamide] in this work.
A pEC50 of 7.55 was found for `COc1ccc(C2=NOC3CS(=O)(=O)CC23)cc1C(=O)Nc1cc2nc(C)sc2cc1C(=O)Nc1ccc(F)c(C(F)(F)F)c1` (stereo not drawn) [Example 6, 5-(5-(5,5-diox-ido-3a,4,6,6a-tetrahydro-thieno[3,4-d]isoxazol-3-yl)-2-methoxy-benzamido)-N-(4-fluoro-3-(trifluorometh-yl)phenyl)-2-methylbenzo [d]thiazole-6-carboxamide] in this work.
A pEC50 of 6.64 was found for `COc1ccc(C2=NOC3(C2)CN(C(=O)CO)C3)cc1C(=O)Nc1cc2c(cc1C(=O)Nc1ccc(F)c(C(F)(F)F)c1)OC(F)(F)O2` [Example 75, 2,2-difluoro-N-(4-fluoro-3-(trifluoromethyl)phenyl)-6-(5-(2-(2-hydroxyacetyl)-5-oxa-2,6-diazaspiro[3.4]oct-6-en-7-yl)-2-methoxybenzamido) benzo[d][1,3]dioxole-5-carboxamide] in this work.
